# According to US9302999B2, “Substituted triazoles as herbicides” (E. I. DU PONT DE NEMOURS AND COMPANY, priority 2012, dated 2016):
# Legend:
# Type in all cases: in vivo
# [1] = system: Russian thistle (Salsola kali); test: Test C pre-/postemergence: Russian thistle; settings: Preemergence
# Procedure, shortened: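 Visual injury scored 0–100 (100 = complete control) against untreated controls after 13–15 greenhouse days. Surfactant-containing solvent formulations applied either to soil after sowing (loam/sand) or over 1- to 4-leaf plants, 2–18 cm tall.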
# [2] = system: blackgrass (Alopecurus myosuroides); test: Test D pre-/postemergence: blackgrass
# Procedure, shortened: (§1)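 We sprayed chemicals in a surfactant-containing solvent onto silt loam at planting (preemergence) and onto 1- to 4-leaf seedlings (postemergence). Fourteen to 21 days later, each species was rated visually from 0 to 100 relative to controls.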
# [3] = system: foxtail, green (green foxtail, Setaria viridis); test: Test D pre-/postemergence: foxtail, green
# Procedure, shortened: as §1
# [4] = system: deadnettle (henbit deadnettle, Lamium amplexicaule); test: Test D pre-/postemergence: deadnettle
# Procedure, shortened: as §1
# [5] = system: lambsquarters (Chenopodium album); test: Test D pre-/postemergence: lambsquarters
# Procedure, shortened: as §1
# [6] = system: wheat, spring (spring wheat, Triticum aestivum); test: Test D pre-/postemergence: wheat, spring
# Procedure, shortened: as §1
# [7] = system: wheat, winter (winter wheat, Triticum aestivum); test: Test D pre-/postemergence: wheat, winter
# Procedure, shortened: as §1
# [8] = 125 g ai/ha, scale 0 to 100, 0 no effect, 100 complete control
# [9] = 250 g ai/ha, scale 0 to 100, 0 no effect, 100 complete control
# [10] = Postemergence, 31 g ai/ha, scale 0 to 100 (0 no effect, 100 complete control)
# [11] = Postemergence, 62 g ai/ha, scale 0 to 100 (0 no effect, 100 complete control)
# [12] = Postemergence, 125 g ai/ha, scale 0 to 100, 0 no effect, 100 complete control
# [13] = Postemergence, 16 g ai/ha, scale 0 to 100
# [14] = Preemergence, 16 g ai/ha, scale 0 to 100, 0 no effect, 100 complete control
# [15] = Preemergence, 31 g ai/ha, scale 0 to 100, 0 no effect, 100 complete control
# [16] = Preemergence, 62 g ai/ha, scale 0 to 100
# [17] = Preemergence, 125 g ai/ha, scale 0 to 100
smiles,measurement,setting,value
"CCOc1nn(-c2ccc(F)cc2)nc1Cc1ccnc(C(F)(F)F)c1 [Compound 196, 4-[[5-ethoxy-2-(4-fluorophenyl)-2H-1,2,3-triazol-4-yl]methyl]-2-(trifluoromethyl)pyridine]","Plant response rating, Russian Thistle","[1]; 31 g ai/ha, scale 0 (no effect) to 100 (complete control)",90
same,"Plant response rating, Russian Thistle","[1]; 62 g ai/ha, scale 0 to 100, 0 no effect, 100 complete control",90
same,"Plant response rating, Russian Thistle",[1]; [8],90
same,"Plant response rating, Russian Thistle",[1]; [9],90
same,Plant response rating: Blackgrass,[2]; [10],65
same,Plant response rating: Blackgrass,[2]; [11],85
same,Plant response rating: Blackgrass,[2]; [12],80
same,"Plant response rating, Blackgrass",[2]; [13],15
same,"Plant response rating, Blackgrass",[2]; [14],10
same,"Plant response rating, Blackgrass",[2]; [15],20
same,"Plant response rating, Blackgrass",[2]; [16],100
same,"Plant response rating, Blackgrass",[2]; [17],100
same,"Plant response rating: Foxtail, Green",[3]; [10],80
same,"Plant response rating: Foxtail, Green",[3]; [11],85
same,"Plant response rating: Foxtail, Green",[3]; [12],95
same,"Plant response rating, Foxtail, Green",[3]; [13],55
same,"Plant response rating, Foxtail, Green",[3]; [14],60
same,"Plant response rating, Foxtail, Green",[3]; [15],60
same,"Plant response rating, Foxtail, Green",[3]; [16],75
same,"Plant response rating, Foxtail, Green",[3]; [17],100
same,Plant response rating: Deadnettle,[4]; [10],100
same,Plant response rating: Deadnettle,[4]; [11],100
same,Plant response rating: Deadnettle,[4]; [12],100
same,"Plant response rating, Deadnettle",[4]; [13],85
same,"Plant response rating, Deadnettle",[4]; [14],10
same,"Plant response rating, Deadnettle",[4]; [15],40
same,"Plant response rating, Deadnettle",[4]; [16],100
same,"Plant response rating, Deadnettle",[4]; [17],100
same,Plant response rating: Lambsquarters,[5]; [10],90
same,Plant response rating: Lambsquarters,[5]; [11],90
same,Plant response rating: Lambsquarters,[5]; [12],95
same,"Plant response rating, Lambsquarters",[5]; [13],85
same,"Plant response rating, Lambsquarters",[5]; [14],55
same,"Plant response rating, Lambsquarters",[5]; [15],65
same,"Plant response rating, Lambsquarters",[5]; [16],100
same,"Plant response rating, Lambsquarters",[5]; [17],100
same,"Plant response rating: Wheat, Spring",[6]; [10],25
same,"Plant response rating: Wheat, Spring",[6]; [11],35
same,"Plant response rating: Wheat, Spring",[6]; [12],35
same,"Plant response rating, Wheat, Spring",[6]; [13],15
same,"Plant response rating, Wheat, Spring",[6]; [14],0
same,"Plant response rating, Wheat, Spring",[6]; [15],5
same,"Plant response rating, Wheat, Spring",[6]; [16],5
same,"Plant response rating, Wheat, Spring",[6]; [17],25
same,"Plant response rating: Wheat, Winter",[7]; [10],20
same,"Plant response rating: Wheat, Winter",[7]; [11],25
same,"Plant response rating: Wheat, Winter",[7]; [12],35
same,"Plant response rating, Wheat, Winter",[7]; [13],15
same,"Plant response rating, Wheat, Winter",[7]; [14],5
same,"Plant response rating, Wheat, Winter",[7]; [15],5
same,"Plant response rating, Wheat, Winter",[7]; [16],10
same,"Plant response rating, Wheat, Winter",[7]; [17],15
Cc1nn(-c2ccc(C(F)(F)F)c(F)c2)nc1Oc1ccnc(C(F)(F)F)c1 [Compound 148],"Plant response rating, Russian Thistle","[1]; 62 g ai/ha, scale of 0 to 100, 0 is no effect, 100 is complete control",85
same,"Plant response rating, Russian Thistle",[1]; [8],95
same,"Plant response rating, Russian Thistle",[1]; [9],95
same,Plant response rating: Blackgrass,[2]; [10],15
same,Plant response rating: Blackgrass,[2]; [11],30
same,Plant response rating: Blackgrass,[2]; [12],65
same,"Plant response rating, Blackgrass",[2]; [13],10
same,"Plant response rating, Blackgrass",[2]; [14],0
same,"Plant response rating, Blackgrass",[2]; [15],10
same,"Plant response rating, Blackgrass",[2]; [16],5
same,"Plant response rating, Blackgrass",[2]; [17],5
same,"Plant response rating: Foxtail, Green",[3]; [10],15
same,"Plant response rating: Foxtail, Green",[3]; [11],50
same,"Plant response rating: Foxtail, Green",[3]; [12],60
same,"Plant response rating, Foxtail, Green",[3]; [13],15
same,"Plant response rating, Foxtail, Green",[3]; [14],15
same,"Plant response rating, Foxtail, Green",[3]; [15],50
same,"Plant response rating, Foxtail, Green",[3]; [16],70
same,"Plant response rating, Foxtail, Green",[3]; [17],100
same,Plant response rating: Deadnettle,[4]; [10],65
same,Plant response rating: Deadnettle,[4]; [11],100
same,Plant response rating: Deadnettle,[4]; [12],100
same,"Plant response rating, Deadnettle",[4]; [13],70
same,"Plant response rating, Deadnettle",[4]; [14],10
same,"Plant response rating, Deadnettle",[4]; [15],45
same,"Plant response rating, Deadnettle",[4]; [16],100
same,"Plant response rating, Deadnettle",[4]; [17],100
same,Plant response rating: Lambsquarters,[5]; [10],85
same,Plant response rating: Lambsquarters,[5]; [11],95
same,Plant response rating: Lambsquarters,[5]; [12],95
same,"Plant response rating, Lambsquarters",[5]; [13],85
same,"Plant response rating, Lambsquarters",[5]; [14],35
same,"Plant response rating, Lambsquarters",[5]; [15],40
same,"Plant response rating, Lambsquarters",[5]; [16],80
same,"Plant response rating, Lambsquarters",[5]; [17],90
same,"Plant response rating: Wheat, Spring",[6]; [10],10
same,"Plant response rating: Wheat, Spring",[6]; [11],20
same,"Plant response rating: Wheat, Spring",[6]; [12],25
same,"Plant response rating, Wheat, Spring",[6]; [13],10
same,"Plant response rating, Wheat, Spring",[6]; [14],0
same,"Plant response rating, Wheat, Spring",[6]; [15],0
same,"Plant response rating, Wheat, Spring",[6]; [16],0
same,"Plant response rating, Wheat, Spring",[6]; [17],5
same,"Plant response rating: Wheat, Winter",[7]; [10],10
same,"Plant response rating: Wheat, Winter",[7]; [11],15
same,"Plant response rating: Wheat, Winter",[7]; [12],25
same,"Plant response rating, Wheat, Winter",[7]; [13],10
same,"Plant response rating, Wheat, Winter",[7]; [14],0
same,"Plant response rating, Wheat, Winter",[7]; [15],5
same,"Plant response rating, Wheat, Winter",[7]; [16],0
same,"Plant response rating, Wheat, Winter",[7]; [17],10
